# How the values were obtained:
# [1] = tested on: white blood cells present in human whole blood samples; assay: QFM (anti-CD3 + R848) stimulatory activity after E-beam irradiation (IFN-γ release in whole blood, ELISA); type: cell-based; settings: for Protection of stimulatory activities of anti-CD3 and R848 against E-beam (FIG. 8): 10 mM Cys or 3.0 mM G-SH, E-beam irradiated; for Protective effect on combined anti-CD3 and R848 activity, titration of radioprotectant (FIG. 9): 25 kGy E-beam, radioprotectant 1.0 to 10 mM
# Description: (§1) Following incubation with the QFM samples in the QFN tubes, whole blood sample processing, plasma harvesting and IFN-γ ELISA were performed according to the QuantiFERON®-TB Gold Plus package insert (QFN-TB Gold Plus, QIAGEN, Inc., Germantown, Md.) except that the plasma samples were diluted 1:10 in ELISA kit Green Diluent immediately before testing on 8-point standard curves.
# [2] = tested on: T-cells present in a whole human blood sample; assay: Anti-CD3 antibody T-cell stimulatory activity after E-beam irradiation (IFN-γ secretion in whole blood, ELISA); type: cell-based; settings: for Protection of anti-CD3 antibody stimulatory activity against E-beam (FIG. 4): 10 mM Cys or 3.0 mM G-SH in DPBS, E-beam doses up to 25 kGy; for Protective effect on anti-CD3 activity, titration of radioprotectant (FIG. 5): 25 kGy E-beam, radioprotectant 1.0 to 10 mM
# Description: Anti-CD3 antibody samples were dissolved in Dulbecco's phosphate-buffered saline (DPBS) and diluted to a concentration of 66.7 μg/mL, then exposed to various doses of E-beam irradiation in the presence or absence of 10 mM cysteine (Cys) or 3 mM glutathione (G-SH). The treated antibody samples were tested for their T-cell stimulatory activity by determining their ability to induce interferon-gamma (IFNγ) secretion by T-cells present in a whole human blood sample obtained from a group of six randomly selected donors, using 0.10 μg of anti-CD3 antibody per mL of whole blood in QuantiFERON® (QFN) Nil tubes (QIAGEN, Inc., Germantown, Md.). Following the incubation of the whole blood samples with the anti-CD3 antibody in the QFN Nil tubes, blood processing, plasma harvesting and IFN-γ detection by enzyme-linked immunosorbent assay (ELISA) were performed according to the manufacturer's instructions as found in the QuantiFERON®-TB Gold Plus package insert (QFN-TB Gold Plus, QIAGEN, Inc., Germantown, Md.) except that the plasma samples were diluted 1 to 10 in ELISA kit Green Diluent immediately before testing on 8-point standard curves.
# [3] = tested on: white blood cells present in human whole blood samples; assay: Concanavalin A activity after E-beam irradiation (IFN-γ release in whole blood, ELISA); type: cell-based; settings: for Protection of ConA stimulatory activity against E-beam (FIG. 12): 10 mM Cys or 3.0 mM G-SH, E-beam irradiated; for Protective effect on ConA activity, titration of radioprotectant (FIG. 13): 25 kGy E-beam, radioprotectant 1.0 to 10 mM
# [4] = tested on: white blood cells present in human whole blood samples; assay: Pokeweed mitogen activity after E-beam irradiation (IFN-γ release in whole blood, ELISA); type: cell-based; settings: for Protection of PWM stimulatory activity against E-beam (FIG. 10): 10 mM Cys or 3.0 mM G-SH, E-beam irradiated; for Protective effect on PWM activity, titration of radioprotectant (FIG. 11): 25 kGy E-beam, radioprotectant 1.0 to 10 mM
# Description: Pokeweed Mitogen (PWM) samples were dissolved in DPBS at a concentration of 33.3 μg/mL and treated with various doses of E-beam irradiation in the presence or absence of 10 mM cysteine (Cys) or 3 mM glutathione (G-SH). The treated PWM samples were tested for their biological activity (ability to elicit IFNγ release during an in vitro incubation) on white blood cells present in human whole blood samples, collected from a group of six randomly selected donors, using 1.0 μg of PWM per mL of whole blood in QFN Nil tubes. Following incubation with the PWM samples in the QFN tubes, whole blood sample processing, plasma harvesting and IFN-γ ELISA were performed according to the QuantiFERON®-TB Gold Plus package insert (QFN-TB Gold Plus, QIAGEN, Inc., Germantown, Md.) except that the plasma samples were diluted 1:10 in ELISA kit Green Diluent immediately before testing on 8-point standard curves.
# [5] = tested on: white blood cells present in human whole blood samples; assay: R848 TLR agonist (NK cell stimulatory) activity after E-beam irradiation (IFN-γ release in whole blood, ELISA); type: cell-based; settings: for Protection of R848 stimulatory activity against E-beam (FIG. 6): 10 mM Cys or 3.0 mM G-SH, E-beam treated; for Protective effect on R848 activity, titration of radioprotectant (FIG. 7): 25 kGy E-beam, radioprotectant 1.0 to 10 mM
# Description: as §1, with “R848 (resiquimod, CAS 144875-48-9) is a toll-like receptor (TLR) agonist which can stimulate biological responses by natural killer (NK) cells, and its activity can be measured in the […] tubes (QIAGEN, Inc., Germantown, Md.) QFN whole blood culture system. […] Following” for “Following”, “R848” for “QFM”
# whole blood samples [6] = assay: Mitogenic activity of PHA-P formulation with radioprotectant additives, with or without E-Beam (IFN-γ secretion, QuantiFERON ELISA); type: cell-based, human; settings: E-Beam 0.0 kGy; additive 5.0 mM; vs untreated control without additives; 6 donors
# whole blood samples [7] = assay: as above; type: cell-based, human; settings: for Group Mean Percentage of Mitogenic Activity: additive 5.0 mM, vs untreated control without additives; for Group Mean Percentage of Mitogenic Activity / Concentration-dependent protection of PHA-P mitogenic activity (FIG. 1) / PHA-P Formulation Potency with Additives: 6 donors; for Concentration-dependent protection of PHA-P mitogenic activity (FIG. 1): E-beam 25 kGy in solution, cysteine 1.0-50 mM, melatonin 0.2-10 mM; for PHA mitogenic activity, % of PHA control formulation (FIG. 1): E-Beam 25 kGy, control without additive and without sterilization; for PHA-P Formulation Potency with Additives: no irradiation, vs same formulation without additives (100%)
# Description: Cysteine (closed circles) and melatonin (open circles) were dissolved in the same PHA-P formulation to various final concentrations. The mitogenic activities were determined by measuring IFN-γ secretion in whole blood samples from six blood donors using QuantiFERON® ELISA according to the manufacturer's instructions (QIAGEN, Inc., Germantown, Md.). Group mean percentages of mitogenic activity over controls (PHA-P alone without any additives) are presented.
# L-cysteine was dissolved in a PHA-P formulation to 1.0-50 mM. Due to its lower water solubility, melatonin stock solution at 200 mM was first prepared in 100% ethyl alcohol. The stocks were then added into the PHA-P formulation to make final concentrations from 0.2-10 mM. After the E-Beam treatment, potencies of PHA-P formulations were tested with whole blood samples and mitogenic activity was determined using QuantiFERON® ELISA (QIAGEN, Inc., Germantown, Md.) according to the manufacturer's instructions.
# whole blood samples [8] = assay: Storage stability of mitogenic activity of radiation sterilized spray-dried PHA tubes with or without cysteine; type: cell-based, human; settings: 5.0 mM cysteine; E-Beam sterilized; subsequent time points extending beyond eight months post-production
# Description: QuantiFERON® Mitogen Control blood collection tubes were produced with and without cysteine (5.0 mM final concentration in liquid mitogen formulation) and sterilized with E-Beam radiation. Mitogen tubes' biological (mitogenic) activities were tested over time and are presented as % potency differences of the activity of mitogen tubes formulated with cysteine compared to mitogen tubes formulated without cysteine. Each dot in the figure represents the % activity of group mean at each time point.
# Mitogen (spray-dried PHA) tubes were produced and radiation sterilized as described in Example 1, comparing PHA preparations without added cysteine to PHA preparations containing 5.0 mM cysteine. The long-term storage stability of the radioprotective effect of cysteine on the mitogenic activity of spray-dried PHA was also assessed.
# Following spray-drying and radiation sterilization the tubes were held for various time periods before being tested for mitogenic activity as described previously.
# whole blood samples [9] = assay: Mitogenic potency of spray-dried PHA in QuantiFERON Mitogen Control blood collection tubes after radiation sterilization (IFN-γ by QuantiFERON ELISA); type: cell-based, human; settings: for PHA mitogenic response, % of control (FIG. 2): control: no radioprotectant, no sterilization, 8 donors
# [10] = spray-dried tubes after radiation sterilization, cysteine 5 mM where present
Molecule,Protection of stimulatory activities of anti-CD3 and R848 against E-beam (FIG. 8) [1],"Protective effect on combined anti-CD3 and R848 activity, titration of radioprotectant (FIG. 9) [1]",Protection of anti-CD3 antibody stimulatory activity against E-beam (FIG. 4) [2],"Protective effect on anti-CD3 activity, titration of radioprotectant (FIG. 5) [2]",Protection of ConA stimulatory activity against E-beam (FIG. 12) [3],"Protective effect on ConA activity, titration of radioprotectant (FIG. 13) [3]",Protection of PWM stimulatory activity against E-beam (FIG. 10) [4],"Protective effect on PWM activity, titration of radioprotectant (FIG. 11) [4]",Protection of R848 stimulatory activity against E-beam (FIG. 6) [5],"Protective effect on R848 activity, titration of radioprotectant (FIG. 7) [5]",Group Mean Percentage of Mitogenic Activity (whole blood samples [6]),Group Mean Percentage of Mitogenic Activity (whole blood samples [7]; E-Beam 8.30 kGy),Group Mean Percentage of Mitogenic Activity (whole blood samples [7]; E-Beam 16.7 kGy),Group Mean Percentage of Mitogenic Activity (whole blood samples [7]; E-Beam 25.0 kGy),Concentration-dependent protection of PHA-P mitogenic activity (FIG. 1) (whole blood samples [7]),"PHA mitogenic response, % of control (FIG. 2) (whole blood samples [9]; [10])",also measured
"N[C@@H](CS)C(=O)O (stereo in doubt) [L-Cysteine, 2-amino-3-sulfhydrylpropanoic acid]",preserved,dose-dependent increase,maintained stimulatory activities,dose-dependent increase,preserved,dose-dependent increase,preserved,dose-dependent increase,retained the stimulatory activities,dose-dependent increase,–,–,–,–,–,–,–
"N[C@@H](CCC(=O)N[C@@H](CS)C(=O)NCC(=O)O)C(=O)O [Glutathione Reduced, γ-L-Glutamyl-L-cysteinylglycine]",preserved,dose-dependent increase,maintained stimulatory activities,dose-dependent increase,preserved,dose-dependent increase,preserved,dose-dependent increase,retained the stimulatory activities,dose-dependent increase,116%,53%,23%,10%,–,–,"Group Mean Percentage of Mitogenic Activity (whole blood samples [7]; E-Beam 8.30 kGy, listed as reduced glutathione): 53%"
"N[C@@H](CS)C(=O)O [L-Cysteine, 2-amino-3-sulfhydrylpropanoic acid]",–,–,–,–,–,–,–,–,–,–,99%,68%,43%,26%,dose dependent protection,72%,"Mitogenic activity of tubes with cysteine compared to tubes without cysteine (FIG. 3) (whole blood samples [8]): retained relatively higher levels of mitogenic activity; Group Mean Percentage of Mitogenic Activity (whole blood samples [7]; E-Beam 8.30 kGy, listed as L-cysteine): 68%; PHA mitogenic activity, % of PHA control formulation (FIG. 1) (whole blood samples [7]; additive 1.0 mM): 5.9%; PHA mitogenic activity, % of PHA control formulation (FIG. 1) (whole blood samples [7]; additive 10 mM): 38%; PHA-P Formulation Potency with Additives (whole blood samples [7]; additive 50 mM): 101%; PHA-P Formulation Potency with Additives (whole blood samples [7]; additive 50 mM, listed as cysteine): comparable to unsupplemented PHA preparations; PHA mitogenic response, % of control (FIG. 2) (whole blood samples [9]; spray-dried tubes, cysteine 5 mM, no radiation sterilization): 94.8%"
"COc1ccc2[nH]cc(CCNC(C)=O)c2c1 [Melatonin, N-acetyl-5-methoxy tryptamine, reference compound]",–,–,–,–,–,–,–,–,–,–,111%,53%,26%,7.7%,dose dependent protection,–,"Group Mean Percentage of Mitogenic Activity (whole blood samples [7]; E-Beam 8.30 kGy, listed as melatonin): 53%; PHA-P Formulation Potency with Additives (whole blood samples [7]; additive 10 mM): 98.6%; PHA-P Formulation Potency with Additives (whole blood samples [7]; additive 10 mM, listed as melatonin): comparable to unsupplemented PHA preparations"
phytohemagglutinin [PHA],–,–,–,–,–,–,–,–,–,–,–,–,–,–,–,56%,"Mitogenic Potency after Tx, E-Beam (whole blood samples [9]; E-beam 16.6-30 kGy, group mean of 11 donors vs same lot of tubes without treatment (100%)): about 55%"
